Measurements published in the supplement of paper PMC10307832.

Tests used:
Experiment in all cases: relative viability (nuclei count vs DMSO), 5 days (fraction); higher = more cells survive
JZL-184 + Dasatinib = compound: C1CN(CCC1C(C2=CC3=C(C=C2)OCO3)(C4=CC5=C(C=C4)OCO5)O)C(=O)OC6=CC=C(C=C6)[N+](=O)[O-] [JZL-184] + Cc1nc(Nc2ncc(C(=O)Nc3c(C)cccc3Cl)s2)cc(N2CCN(CCO)CC2)n1 [Dasatinib] (partner 0.075 µM)
Summary of the method: (§1)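 Relative viability equals treated-well nuclei counts divided by vehicle-well nuclei counts. Counts came from 4× images of lung cancer cell lines grown in 1536-well plates for 5 days after pin-tool dosing on the day after seeding. Dosing used one drug alone or a fixed anchor-drug dose plus five library-drug doses (not always all listed) in √10 steps, and values are medians of duplicate plates.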

JZL-184 + Olaparib = compound: C1CN(CCC1C(C2=CC3=C(C=C2)OCO3)(C4=CC5=C(C=C4)OCO5)O)C(=O)OC6=CC=C(C=C6)[N+](=O)[O-] [JZL-184] + O=C(c1cc(Cc2n[nH]c(=O)c3ccccc23)ccc1F)N1CCN(C(=O)C2CC2)CC1 [Olaparib] (partner 8 µM)
Summary of the method: as §1

JZL-184 + Foretinib = compound: C1CN(CCC1C(C2=CC3=C(C=C2)OCO3)(C4=CC5=C(C=C4)OCO5)O)C(=O)OC6=CC=C(C=C6)[N+](=O)[O-] [JZL-184] + COc1cc2c(Oc3ccc(NC(=O)C4(C(=O)Nc5ccc(F)cc5)CC4)cc3F)ccnc2cc1OCCCN1CCOCC1 [Foretinib] (partner 0.25 µM)
Summary of the method: as §1

JZL-184 + Decitabine = compound: C1CN(CCC1C(C2=CC3=C(C=C2)OCO3)(C4=CC5=C(C=C4)OCO5)O)C(=O)OC6=CC=C(C=C6)[N+](=O)[O-] [JZL-184] + Nc1ncn([C@H]2C[C@H](O)[C@@H](CO)O2)c(=O)n1 [Decitabine] (partner 2 µM)
Summary of the method: as §1

JZL-184 + Navitoclax = compound: C1CN(CCC1C(C2=CC3=C(C=C2)OCO3)(C4=CC5=C(C=C4)OCO5)O)C(=O)OC6=CC=C(C=C6)[N+](=O)[O-] [JZL-184] + CC1(C)CCC(c2ccc(Cl)cc2)=C(CN2CCN(c3ccc(C(=O)NS(=O)(=O)c4ccc(N[C@H](CCN5CCOCC5)CSc5ccccc5)c(S(=O)(=O)C(F)(F)F)c4)cc3)CC2)C1 [Navitoclax] (partner 0.5 µM)
Summary of the method: as §1

| Cell Line | relative viability (JZL-184 + Dasatinib; first compound 0.04 µM) | relative viability (JZL-184 + Dasatinib; first compound 0.4 µM) | relative viability (JZL-184 + Dasatinib; first compound 1.265 µM) | relative viability (JZL-184 + Dasatinib; first compound 4 µM) | relative viability (JZL-184 + Olaparib; first compound 0.04 µM) | relative viability (JZL-184 + Olaparib; first compound 0.4 µM) | relative viability (JZL-184 + Olaparib; first compound 1.265 µM) | relative viability (JZL-184 + Olaparib; first compound 4 µM) | relative viability (JZL-184 + Foretinib; first compound 0.04 µM) | relative viability (JZL-184 + Foretinib; first compound 0.4 µM) | relative viability (JZL-184 + Foretinib; first compound 1.265 µM) | relative viability (JZL-184 + Foretinib; first compound 4 µM) | relative viability (JZL-184 + Decitabine; first compound 0.04 µM) | relative viability (JZL-184 + Decitabine; first compound 0.4 µM) | relative viability (JZL-184 + Decitabine; first compound 1.265 µM) | relative viability (JZL-184 + Decitabine; first compound 4 µM) | relative viability (JZL-184 + Navitoclax; first compound 0.04 µM) | relative viability (JZL-184 + Navitoclax; first compound 0.4 µM) | relative viability (JZL-184 + Navitoclax; first compound 1.265 µM) | relative viability (JZL-184 + Navitoclax; first compound 4 µM) |
| --- | --- | --- | --- | --- | --- | --- | --- | --- | --- | --- | --- | --- | --- | --- | --- | --- | --- | --- | --- | --- |
| NCI-H1793 | 0.511 | 0.36 | 0.41 | 0.369 | 0.978 | 0.911 | 0.933 | 0.861 | 0.63 | 0.84 | 0.865 | 0.583 | 0.533 | 0.441 | 0.507 | 0.462 | 0.351 | 0.426 | 0.502 | 0.38 |
| HCC-366 | 0.892 | 0.64 | 0.61 | 0.638 | 0.361 | 0.353 | 0.302 | 0.36 | 0.986 | 0.889 | 0.931 | 0.958 | 0.348 | 0.357 | 0.336 | 0.314 | 1.21 | 1.03 | 1.07 | 1.06 |
| NCI-H1651 | 0.407 | 0.376 | 0.487 | 0.42 | 0.24 | 0.176 | 0.196 | 0.207 | 0.798 | 0.786 | 0.725 | 0.788 | 0.667 | 0.358 | 0.428 | 0.623 | 1.07 | 0.99 | 1.07 | 1.12 |
| LC-2-ad | 0.815 | 0.496 | 0.815 | 0.463 | 0.79 | 0.682 | 0.696 | 0.686 | 1.13 | 0.847 | 0.886 | 0.955 | 0.687 | 0.718 | 0.887 | 0.787 | 0.467 | 0.248 | 0.491 | 0.369 |
| HCC-827 | 0.328 | 0.31 | 0.34 | 0.305 | 0.556 | 0.607 | 0.718 | 0.627 | 1.12 | 0.962 | 1.01 | 0.943 | 0.297 | 0.191 | 0.306 | 0.312 | 1.04 | 1.01 | 1.02 | 0.981 |
| SK-LU-1 | 0.183 | 0.196 | 0.194 | 0.207 | 0.593 | 0.408 | 0.463 | 0.642 | 0.909 | 0.77 | 0.919 | 0.722 | 0.673 | 0.584 | 0.705 | 0.698 | 1.36 | 0.866 | 0.915 | 0.823 |
| COR-L 105 | 0.493 | 0.389 | 0.35 | 0.336 | 0.686 | 0.775 | 0.663 | 0.679 | 0.989 | 0.975 | 0.995 | 1.22 | 0.686 | 0.648 | 0.613 | 0.611 | 0.878 | 0.813 | 0.905 | 0.585 |
| LOU-NH91 | 0.612 | 0.544 | 0.605 | 0.567 | 1 | 0.902 | 0.957 | 0.889 | 1.02 | 0.9 | 1.03 | 0.939 | 0.814 | 0.837 | 0.863 | 0.749 | 0.763 | 0.71 | 0.886 | 0.718 |
| LU99A | 0.717 | 0.443 | 0.525 | 0.541 | 0.256 | 0.277 | 0.254 | 0.225 | 0.801 | 0.726 | 0.873 | 0.767 | 1 | 0.902 | 1.01 | 0.843 | 0.714 | 0.588 | 0.804 | 0.463 |
| NCI-H1650 | 0.306 | 0.297 | 0.388 | 0.296 | 0.867 | 0.72 | 0.87 | 0.74 | 1.22 | 1.03 | 1.35 | 0.898 | 0.405 | 0.464 | 0.471 | 0.425 | 1.64 | 1.08 | 1.39 | 1.06 |
| SW 1573 | 0.638 | 0.379 | 0.548 | 0.42 | 0.68 | 0.351 | 0.454 | 0.479 | 1.06 | 0.791 | 0.94 | 0.829 | 0.818 | 0.449 | 0.484 | 0.463 | 0.913 | 0.912 | 1.21 | 1.16 |
| HOP-62 | 0.561 | 0.679 | 0.659 | 0.631 | 0.49 | 0.328 | 0.529 | 0.507 | 1.16 | 1.08 | 1.09 | 1.03 | 0.249 | 0.197 | 0.233 | 0.214 | 1.13 | 0.739 | 1.07 | 1.1 |
| UMC-11 | 0.662 | 0.474 | 0.494 | 0.447 | 0.349 | 0.333 | 0.308 | 0.354 | 1.09 | 0.883 | 1.11 | 1.09 | 0.738 | 0.521 | 0.616 | 0.733 | 0.349 | 0.318 | 0.349 | 0.302 |
| NCI-H1734 | 0.503 | 0.425 | 0.442 | 0.453 | 0.674 | 0.589 | 0.627 | 0.547 | 0.982 | 0.743 | 0.957 | 0.771 | 0.536 | 0.494 | 0.512 | 0.501 | 0.991 | 0.799 | 0.901 | 0.843 |
| EKVX | 0.474 | 0.536 | 0.576 | 0.581 | 0.851 | 0.778 | 0.769 | 0.834 | 0.677 | 0.752 | 0.925 | 0.755 | 0.354 | 0.412 | 0.396 | 0.363 | 1 | 0.946 | 0.922 | 0.895 |
